According to patent US9371365B2, “Modified compstatin with peptide backbone and C-terminal modifications” (The Trustees of the University of Pennsylvania, priority 2009, dated 2016):
Where two headings read alike, the source gives them in different places. Bridge positions count the residues as written; N and C are the ends. Square brackets hold non-standard residues; d marks the D form. Peptide text beside a SMILES is read from it. Trp(1-Me) = Cn1cc(C[C@H](N)C(=O)O)c2ccccc21; NMeY = CN[C@@H](Cc1ccc(O)cc1)C(=O)O; NMeV = CN[C@H](C(=O)O)C(C)C; NMeA = CN[C@@H](C)C(=O)O; Sar = CNCC(=O)O

Legend:
C3b = molecular target: T1, C3b (Homo sapiens, UniProt P01024); experiment: SPR analysis of binding kinetics to immobilized C3b; settings: for kd: SPR, 25° C., PBS-T; for kon: pH 7.4, read-out: ka; for rKD SPR / rka / rkd: relative to peptide 14
T1 construct: biotin (chemical biotinylation of C3b)
T1 sequence (P01024 23-667 limits assumed): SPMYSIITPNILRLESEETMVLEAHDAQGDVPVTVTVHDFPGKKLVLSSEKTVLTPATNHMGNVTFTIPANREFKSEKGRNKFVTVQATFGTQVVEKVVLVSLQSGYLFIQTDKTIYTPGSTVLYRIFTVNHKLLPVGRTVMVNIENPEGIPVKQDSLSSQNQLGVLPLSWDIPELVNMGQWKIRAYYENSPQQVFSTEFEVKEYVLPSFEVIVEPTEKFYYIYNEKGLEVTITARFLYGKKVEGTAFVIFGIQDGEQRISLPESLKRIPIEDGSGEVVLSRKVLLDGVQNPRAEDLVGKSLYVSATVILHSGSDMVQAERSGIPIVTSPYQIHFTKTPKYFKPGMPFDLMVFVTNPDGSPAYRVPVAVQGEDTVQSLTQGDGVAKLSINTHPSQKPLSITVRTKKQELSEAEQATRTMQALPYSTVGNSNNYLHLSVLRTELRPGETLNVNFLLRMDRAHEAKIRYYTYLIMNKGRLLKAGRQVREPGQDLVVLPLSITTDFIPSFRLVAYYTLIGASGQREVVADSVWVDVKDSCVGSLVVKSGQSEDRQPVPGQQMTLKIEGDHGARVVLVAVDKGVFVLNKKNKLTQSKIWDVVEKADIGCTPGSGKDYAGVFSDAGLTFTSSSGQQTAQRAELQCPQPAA
T1 sequence (P01024 749-1663 limits assumed): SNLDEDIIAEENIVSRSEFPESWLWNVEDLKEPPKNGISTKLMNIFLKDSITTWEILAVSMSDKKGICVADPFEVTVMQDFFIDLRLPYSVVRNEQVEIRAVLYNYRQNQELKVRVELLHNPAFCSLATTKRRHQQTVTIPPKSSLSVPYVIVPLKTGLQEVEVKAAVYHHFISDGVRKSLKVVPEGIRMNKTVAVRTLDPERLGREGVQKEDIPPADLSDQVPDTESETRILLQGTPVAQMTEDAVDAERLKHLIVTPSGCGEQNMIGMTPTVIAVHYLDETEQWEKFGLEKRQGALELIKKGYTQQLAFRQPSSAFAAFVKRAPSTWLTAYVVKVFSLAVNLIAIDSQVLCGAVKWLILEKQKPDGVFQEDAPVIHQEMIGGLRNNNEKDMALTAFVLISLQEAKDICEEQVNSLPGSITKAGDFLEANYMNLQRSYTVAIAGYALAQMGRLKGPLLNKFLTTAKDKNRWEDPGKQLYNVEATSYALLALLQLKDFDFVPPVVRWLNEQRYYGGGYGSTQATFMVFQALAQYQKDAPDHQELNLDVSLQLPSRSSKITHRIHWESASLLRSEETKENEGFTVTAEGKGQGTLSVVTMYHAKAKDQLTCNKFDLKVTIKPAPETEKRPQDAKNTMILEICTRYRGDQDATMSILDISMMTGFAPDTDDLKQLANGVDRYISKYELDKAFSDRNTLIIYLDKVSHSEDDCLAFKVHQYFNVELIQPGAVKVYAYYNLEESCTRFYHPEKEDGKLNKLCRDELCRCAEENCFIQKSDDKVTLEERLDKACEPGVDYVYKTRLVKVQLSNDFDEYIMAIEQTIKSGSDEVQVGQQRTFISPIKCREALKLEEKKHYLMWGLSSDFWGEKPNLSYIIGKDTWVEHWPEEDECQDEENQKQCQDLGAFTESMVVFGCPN
Procedure: (§1) The kinetics of the interaction between C3b and each compstatin analog was analyzed by SPR on a Biacore 3000 instrument (GE Healthcare Corp., Piscataway, N.J.) at 25° C. using PBS-T (10 mM sodium phosphate, 150 mM NaCl, 0.005% Tween-20, pH 7.4) as the running buffer, as described above. In brief, biotinylated C3b (30 μg/mL) was immobilized on a streptavidin-coated sensor chip, and a two-fold serial dilution series (1 μM-500 pM) of each analog was injected for 2 min at 30 μl/min, with a dissociation phase of 5-10 min. Peptide [Trp(Me)^4]-Ac-compstatin was included in each experimental series as an internal control and reference. Data analysis was performed using Scrubber (BioLogic Software, Campbell, Australia). The signals from an untreated flow cell and an ensemble of buffer blank injections were subtracted to correct for buffer effects and injection artifacts. Processed biosensor data were globally fitted to a 1:1 Langmuir binding model, and the equilibrium dissociation constant (KD) was calculated from the equation KD=kd/ka. Peptide solutions were injected in duplicate in every experiment, and each screening assay was performed at least twice.
as §1, with “in Example 1.” for “above.”, “μg/ml)” for “μg/mL)”, “Peptide [Trp(Me)^4]-Ac-compstatin was included in each experimental series as an internal control and reference.” left out

C3 = molecular target: T2, C3 (Homo sapiens, UniProt P01024); experiment: ITC analysis of binding to C3
T2 construct: C3 was purified from fresh human plasma; from tissue; host or cells: fresh human plasma (blood bank of the Hospital of the University of Pennsylvania)
T2 sequence (P01024 23-667 limits assumed): as the sequence (P01024 23-667 limits assumed) above
T2 sequence (P01024 672-1663 limits assumed): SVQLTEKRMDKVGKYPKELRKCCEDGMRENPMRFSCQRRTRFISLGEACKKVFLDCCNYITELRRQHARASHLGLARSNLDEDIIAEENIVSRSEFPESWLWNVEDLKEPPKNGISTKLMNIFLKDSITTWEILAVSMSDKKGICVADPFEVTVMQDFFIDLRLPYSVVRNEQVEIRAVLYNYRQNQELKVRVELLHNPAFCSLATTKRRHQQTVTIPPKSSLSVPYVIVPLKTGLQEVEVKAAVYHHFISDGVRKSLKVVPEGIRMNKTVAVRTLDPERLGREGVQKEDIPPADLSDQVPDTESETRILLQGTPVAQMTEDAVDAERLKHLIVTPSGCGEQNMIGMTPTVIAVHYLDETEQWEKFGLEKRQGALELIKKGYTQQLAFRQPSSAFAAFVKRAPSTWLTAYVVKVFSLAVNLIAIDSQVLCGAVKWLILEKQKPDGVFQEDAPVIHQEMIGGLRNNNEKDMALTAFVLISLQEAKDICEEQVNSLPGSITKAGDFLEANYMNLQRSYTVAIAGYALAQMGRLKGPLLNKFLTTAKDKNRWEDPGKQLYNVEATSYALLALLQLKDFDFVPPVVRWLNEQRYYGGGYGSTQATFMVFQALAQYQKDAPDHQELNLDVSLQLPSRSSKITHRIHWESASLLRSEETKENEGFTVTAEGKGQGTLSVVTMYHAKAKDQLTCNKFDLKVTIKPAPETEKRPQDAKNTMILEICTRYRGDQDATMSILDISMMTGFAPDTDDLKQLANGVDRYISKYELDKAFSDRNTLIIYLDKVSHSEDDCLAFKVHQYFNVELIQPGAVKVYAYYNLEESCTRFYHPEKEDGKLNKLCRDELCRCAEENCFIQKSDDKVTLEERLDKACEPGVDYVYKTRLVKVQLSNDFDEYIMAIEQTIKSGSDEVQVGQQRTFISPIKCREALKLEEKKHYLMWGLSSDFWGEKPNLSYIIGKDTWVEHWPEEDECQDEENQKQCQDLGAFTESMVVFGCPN
Procedure: C3 was purified from fresh human plasma obtained from the blood bank of the Hospital of the University of Pennsylvania. In brief, the plasma was fractionated with 15% (w/v) PEG 3350, and the pellet was resuspended in 20 mM phosphate buffer, pH 7.8, and then subjected to anion-exchange chromatography on a DEAE-HR 40 column (50×5 cm; Millipore Inc., Billerica, Mass.) with the same buffer. Proteins were eluted with 6 L of a linear gradient (15-70%) of 20 mM phosphate buffer, pH 7.8, containing 500 mM NaCl. C3 was further purified on a size-exclusion Superdex 200 26/60 column (Amersham Biosciences) and a Mono S column (Amersham Biosciences) to separate C3 from C3(H2O).
All titrations were performed in PBS (10 mM phosphate buffer with 150 mM NaCl, pH 7.4) at 25° C. using multiple peptide injections of 2-7 μL each. The raw isotherms were corrected for the heats of dilution by subtracting the isotherms representing peptide injections into the buffer. The resulting isotherms were fitted to a single site of sites models using Origin 7.0 software, and the model that produced the lowest χ^2 value was deemed to be appropriate for the respective data set. The Gibbs free energy was calculated as ΔG=ΔH−TΔS. Each experiment was repeated at least twice.

[1] = test system: classical pathway of complement; experiment: Inhibition of classical pathway complement activation, ELISA in human serum; assay type: biochemical; settings: for IC50: read-out: IC50; for inhibition of complement activation, result in words: ELISA, N-methylation scan
Procedure: The ability of the compstatin analogs to inhibit the activation of the classical pathway of complement was assessed by ELISA (Mallik et al., 2005, J Med Chem 48:274-86). In brief, complement was activated in human serum using an antigen-antibody complex in the presence or absence of compstatin analogs, and the deposition of C3 fragments on the plate surface was detected using an HRP-conjugated polyclonal anti-C3 antibody. […] The percent inhibition was plotted against the peptide concentration, and the resulting data set was fitted to the logistic dose-response function using Origin 7.0 software. IC50 values were obtained from the fitted parameters that produced the lowest χ^2 value. Each analog was assayed at least three to seven times.
The ability of the compstatin analogs to inhibit the activation of the classical pathway of complement was assessed by ELISA as described in Example 1. Each conjugate was assayed at least three times.

Question: What does the source list for `CC[C@H](C)[C@H](NC(=O)[C@@H]1CSSC[C@H](NC(=O)[C@@H](NC(C)=O)[C@@H](C)CC)C(=O)N[C@@H](C(C)C)C(=O)N[C@@H](Cc2cn(C)c3ccccc23)C(=O)N[C@@H](CCC(N)=O)C(=O)N[C@@H](CC(=O)O)C(=O)N[C@@H](Cc2c[nH]c3ccccc23)C(=O)NCC(=O)N[C@@H](C)C(=O)N[C@@H](Cc2c[nH]cn2)C(=O)N[C@@H](CCCNC(=N)N)C(=O)N1)C(N)=O` [Peptide 16]?
Answer: kd (C3b): 11.0 10^−3/s; kon (C3b): 1e+06 M⁻¹ s⁻¹; rKD SPR (C3b): 1.1; rka (C3b): 1.0; rkd (C3b): 1.0; ΔH (C3; ITC): -16.6 kcal/mol; −TΔS (C3; ITC): 5.7 kcal/mol; ΔG (C3; ITC, ΔG=ΔH−TΔS): -10.9 kcal/mol; rKD ITC (C3; relative to peptide 14): 1.2; ΔΔG (C3; relative to peptide 14): -0.2 kcal/mol; ΔΔH (C3; relative to peptide 14): 1.0 kcal/mol; −TΔΔS (C3; relative to peptide 14): -1.3 kcal/mol

Question: For `CC[C@H](C)[C@H](NC(C)=O)C(=O)N[C@H]1CSSC[C@@H](C(=O)N[C@@H](CC(C)C)C(N)=O)NC(=O)[C@H](CCCNC(=N)N)NC(=O)[C@H](Cc2c[nH]cn2)NC(=O)[C@H](C)NC(=O)CN(C)C(=O)[C@H](Cc2c[nH]c3ccccc23)NC(=O)[C@H](CC(=O)O)NC(=O)[C@H](CCC(N)=O)NC(=O)[C@H](Cc2cn(C)c3ccccc23)NC(=O)[C@H](C(C)C)NC1=O` [Peptide 18, Ac−Ic[CV(^1−MeW)QDW(^N−MeG)AHRC]L-NH2] (Ac-ICV[Trp(1-Me)]QDW[Sar]AHRCL-NH2; disulfide 2-12), which kd (C3b) is on record?
Answer: Its kd is 6.0 10^−3/s.

Question: What about the kon (C3b) of the same compound?
Answer: The kon was 1.3e+06 M⁻¹ s⁻¹.

Question: And the “rKD SPR” value (C3b)?
Answer: The value was 2.6.

Question: What about the rka (C3b) of the same compound?
Answer: The rka was 1.3.

Question: What about the rkd (C3b) of the same compound?
Answer: The rkd was 1.9.

Question: What about the IC50 ([1]; Table 1-2) of the same compound?
Answer: The IC50 was 108 nM.

Question: What about the IC50 ([1]; exemplary analogs table) of the same compound?
Answer: The IC50 was 108 nM.

Question: What about the rP ([1]; relative potency compared to peptide 14) of the same compound?
Answer: The rP was 1.9.

Question: With “Ac-I[C(NMe)VYQDWGAHRC]T-NH2 (Ac-IC[NMeV]YQDWGAHRCT-NH2; disulfide 2-12; SMILES CC[C@H](C)[C@H](NC(C)=O)C(=O)N[C@H]1CSSC[C@@H](C(=O)N[C@H](C(N)=O)[C@@H](C)O)NC(=O)[C@H](CCCNC(=N)N)NC(=O)[C@H](Cc2c[nH]cn2)NC(=O)[C@H](C)NC(=O)CNC(=O)[C@H](Cc2c[nH]c3ccccc23)NC(=O)[C@H](CC(=O)O)NC(=O)[C@H](CCC(N)=O)NC(=O)[C@H](Cc2ccc(O)cc2)NC(=O)[C@H](C(C)C)N(C)C1=O) [Peptide 3]” as the compound, how does the “inhibition of complement activation, result in words” value (shortened to “inhibition of complement activation”) [1] read?
Answer: The value was “completely inactive”.

Question: Which “inhibition of complement activation” value [1] does the source give for “Ac-I[CV(NMe)YQDWGAHRC]T-NH2 (Ac-ICV[NMeY]QDWGAHRCT-NH2; disulfide 2-12; SMILES CC[C@H](C)[C@H](NC(C)=O)C(=O)N[C@H]1CSSC[C@@H](C(=O)N[C@H](C(N)=O)[C@@H](C)O)NC(=O)[C@H](CCCNC(=N)N)NC(=O)[C@H](Cc2c[nH]cn2)NC(=O)[C@H](C)NC(=O)CNC(=O)[C@H](Cc2c[nH]c3ccccc23)NC(=O)[C@H](CC(=O)O)NC(=O)[C@H](CCC(N)=O)NC(=O)[C@H](Cc2ccc(O)cc2)N(C)C(=O)[C@H](C(C)C)NC1=O) [Peptide 4]” here?
Answer: Its value is “completely inactive”.

Question: With “Ac-I[CVYQDWG(NMe)AHRC]T-NH2 (Ac-ICVYQDWG[NMeA]HRCT-NH2; disulfide 2-12; SMILES CC[C@H](C)[C@H](NC(C)=O)C(=O)N[C@H]1CSSC[C@@H](C(=O)N[C@H](C(N)=O)[C@@H](C)O)NC(=O)[C@H](CCCNC(=N)N)NC(=O)[C@H](Cc2c[nH]cn2)NC(=O)[C@H](C)N(C)C(=O)CNC(=O)[C@H](Cc2c[nH]c3ccccc23)NC(=O)[C@H](CC(=O)O)NC(=O)[C@H](CCC(N)=O)NC(=O)[C@H](Cc2ccc(O)cc2)NC(=O)[C@H](C(C)C)NC1=O) [Peptide 9]” as the compound, how does the “inhibition of complement activation” value [1] read?
Answer: The value was “completely inactive”.
